Activity calls are given as the source filed them. How the calls were made is not given here.
Target: X-box-binding protein 1 (Homo sapiens) (UniProt P17861)
Assay: XBP1 reporter suppression in cells – counter-screen, dose response (AID 504313);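 further: CHO cells carrying an XBP1 reporter stimulated with tunicamycin; potency is for inhibition of the tunicamycin-induced reporter signal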
Conditions: XBP1 reporter cell assay, percent of control

`CC1CCCC(NCC(O)COC(c2ccc(F)cc2)c2ccc(F)cc2)C1C` (stereo not given) was tested, and the IC50 was “inactive”.

With `O=C(Nc1ccccc1NC(=O)NC1CCCCC1)NC1CCCCC1` the IC50 was “inactive”.

With `CC(C)c1ccc(O)c(NC(=S)NC(=O)CCc2ccccc2)c1` the IC50 was “inactive”.

For `Cn1c2ccccc2c(=O)c2c(=O)n(C3CCCCCC3)c(C3CCCCC3)nc21`, the IC50 was > 10 µM (inactive).

With `CCC(Cc1ccccc1)n1c(=S)[nH]c2ccccc2c1=O` (stereo not given) the IC50 was > 10 µM (inactive).

With `O=C(CN1CCN(c2ncc(C(F)(F)F)cc2Cl)CC1)NCCNc1ncc(C(F)(F)F)cc1Cl` the IC50 was “inactive”.

In the case of `O=C(COCC(=O)Nc1cccc(C(F)(F)F)c1)Nc1cccc(C(F)(F)F)c1`, the IC50 is reported as “inactive”.

For `CC(CNC(=S)Nc1cc(F)cc(F)c1)CSc1ccc(Cl)cc1` (stereo not given), the IC50 was > 10 µM (inactive).

`CC1=NNC(=O)/C1=C\c1cn(-c2ccccc2)nc1-c1ccc(F)cc1` was tested, and the IC50 was “inactive”.

For `CC(C)CCN(C(=O)Cc1ccc(Cl)c(Cl)c1)c1c(N)n(Cc2ccccc2)c(=O)[nH]c1=O`, the IC50 was “inactive”.

For `Nc1ccc2oc(-c3cc(Br)ccc3Cl)nc2c1`, the IC50 was 0.39 µM.

In the case of `CC(/C=N/n1c(C2CCCCC2)n[nH]c1=S)=C\c1ccccc1`, the IC50 is reported as > 10 µM (inactive).

In the case of `Cc1nn(Cc2c(Cl)cccc2Cl)c(C)c1NC(=O)c1cn(-c2ccccc2)nc1-c1ccccc1`, the IC50 is reported as “inactive”.

Compound `COc1ccc2c(C)nc(Nc3nc(C)c(C)c(=O)[nH]3)nc2c1` has an IC50 of under 0.16 µM.

For `Cc1cc2c(cc1C)CSC(c1c(O)ccc3ccccc13)SC2`, the IC50 was > 10 µM (inactive).

With `COc1ccc(N/N=C(\C=N\O)C(=O)c2ccc(OC)cc2)cc1` the IC50 was > 10 µM (inactive).

For `CCCc1cc(C(=O)Cc2ccc(F)cc2)c(O)cc1O`, the IC50 was “inactive”.

`CCOc1cc(/C=C2/C(=O)ON=C2C)ccc1OCc1ccccc1F` was tested, and the IC50 was > 10 µM (inactive).

For `O=C(CN1c2ccccc2Sc2ccccc21)NNC(=O)Nc1cccc(Cl)c1`, the IC50 was > 10 µM (inactive).

`CCN1/C(=C/c2ccc3cc(C)ccc3[n+]2C)Sc2ccc3sccc3c21` was tested, and the IC50 was 2.28 µM.

Work on `COc1cc(OC)nc(-n2ncc(Br)c(Br)c2=O)n1` yielded an IC50 of 1.99 µM.

For `COC(=O)c1c(NC(=O)Nc2ccc(Cl)cc2)sc(C)c1C`, the IC50 was > 10 µM (inactive).

With `C=C(C)Cn1c(N2CCC(Cc3ccccc3)CC2)nc2c1c(=O)[nH]c(=O)n2C` the IC50 was > 10 µM (inactive).

For `CC(=O)C1=C(S(=O)(=O)c2ccc(C)cc2)CS(=O)(=O)C1`, the IC50 was > 10 µM (inactive).

In the case of `C/C(=N\OCc1cccc(C(=O)O)c1)c1ccc(Cl)cc1`, the IC50 is reported as “inactive”.

In the case of `C=C(C)COc1ccc(-c2n[nH]c(C)c2-c2ccc(Br)cc2)c(O)c1`, the IC50 is reported as “inactive”.

With `N#CC1=C(N)N2C(=C(C#N)C1c1cccc(Br)c1)Nc1ccccc12` (stereo not given) the IC50 was “inactive”.

For `C[C@H](NC(=O)c1nc[nH]c1C(=O)N[C@@H](Cc1ccccc1)C(=O)OC(C)(C)C)C(=O)OC(C)(C)C`, the IC50 was “inactive”.

For `C/C(=N\NC(=O)c1nn(C)c(C)c1Br)c1ccc(NC(=O)c2ccoc2C)cc1`, the IC50 was > 10 µM (inactive).

`Cc1ccc(C)c(OCc2ccc(C(=O)N3N=C(C(F)F)CC3(O)C(F)F)o2)c1` (stereo not given) was tested, and the IC50 was “inactive”.

For `CCN(CC)S(=O)(=O)c1cccc(NC(=O)Nc2cccc(C(F)(F)F)c2)c1`, the IC50 was “inactive”.

`Cc1cc(C)n(-c2nc(Nc3ccccc3C(F)(F)F)nc(-n3nc(C)cc3C)n2)n1` was tested, and the IC50 was “inactive”.

In the case of `Nc1nc(-c2ccccc2)c(N=Nc2ccccc2Cl)s1`, the IC50 is reported as “inactive”.

With `CCC(C)[C@@H](NC(=O)OC(C)(C)C)c1nnc(S(=O)(=O)Cc2cccc(C)c2)o1` (stereo not given in full) the IC50 was 4.55 µM.

In the case of `CCOc1ccc(/C=C/C2=Cc3c(sc(NC(=O)CSc4n[nH]c(N)n4)c3C#N)C(C)(C)C2)cc1`, the IC50 is reported as > 10 µM (inactive).

`CC(C)C[C@H](NC(=O)OC(C)(C)C)C(=O)N/N=C/C1=Cc2ccccc2OC1C` (stereo not given in full) was tested, and the IC50 was “inactive”.

In the case of `C=CCc1cccc(/C=N/NC(=O)CCCNc2ccc(C)cc2)c1O`, the IC50 is reported as “inactive”.

`COc1cc(/C=C2\COC/C(=C\c3cc(OC)c(OC)c(OC)c3)C2=O)cc(OC)c1OC` showed an IC50 of 1.39 µM.

For `Clc1ccc2[nH]c(-c3ccccc3)cc2c1`, the IC50 was > 10 µM (inactive).

`Cc1cccc(/C=C2/S/C(=N/N=C3\CC4CCC3(C)C4(C)C)NC2=O)c1` (stereo not given) was tested, and the IC50 was “inactive”.

For `Cc1cccc(N=Nc2c(N)n[nH]c2-c2ccc(Cl)cc2)c1`, the IC50 was > 10 µM (inactive).

For `CCN1CCN(Cc2ccc(NC(=O)c3ccc(C)c(NC(=O)c4c[nH]c5cc(C(F)(F)F)ccc5c4=O)c3)cc2C(F)(F)F)CC1`, the IC50 was under 0.16 µM.

`O=C(Nc1ccc(S(=O)(=O)N2CCOCC2)cc1)c1ccc(CN2CCc3ccccc3C2)cc1` was tested, and the IC50 was “inactive”.

`Cc1ccc(NP(=O)(Oc2ccccc2F)Oc2ccccc2F)cc1` was tested, and the IC50 was “inactive”.

For `O=C(NNc1ccccc1[N+](=O)[O-])Nc1ccc(Cl)c(Cl)c1`, the IC50 was > 10 µM (inactive).

In the case of `Cc1ccc2nc(NC(=O)CSCC(=O)OCC(=O)c3ccc(Br)cc3)sc2c1`, the IC50 is reported as 3.51 µM.

In the case of `CCCOC(=O)c1ccc(Oc2cn[nH]c2-c2ccc(OCC)cc2O)cc1`, the IC50 is reported as “inactive”.

For `COC(=O)c1sc(-c2ccc(C(C)(C)C)cc2)cc1NC(=O)c1ccccc1C(=O)O`, the IC50 was > 10 µM (inactive).

For `O=C(/C=C/c1cccc(C(F)(F)F)c1)Nc1cccc(C(F)(F)F)c1`, the IC50 was “inactive”.

For `CCCCC(CC)C(=O)Oc1ccc(O)c(C(C)(C)C)c1` (stereo not given), the IC50 was “inactive”.

`COc1cccc(N2CCN(c3ncnc4c3[nH]c3ccccc34)CC2C)c1` (stereo not given) was tested, and the IC50 was “inactive”.

In the case of `CCOC(=O)CCS(=O)(=O)c1nc(-c2ccccc2)cc(C(F)(F)F)n1`, the IC50 is reported as “inactive”.

With `CCOC(=O)/C=C/S(=O)(=O)c1ccc(NC(C)=O)cc1` the IC50 was “inactive”.

For `O=C(OCn1ncc(Cl)c(Cl)c1=O)c1ccc(C(F)(F)F)cc1`, the IC50 was > 10 µM (inactive).

`NC(=O)CC(NC(=O)Cc1cccc2ccccc12)c1ccc(NCc2ccc(F)cc2)c([N+](=O)[O-])c1` (stereo not given) was tested, and the IC50 was > 10 µM (inactive).

From PubChem BioAssay AID504313 (Emory University Molecular Libraries Screening Center, 2011)
